{
  "source": "patent US12150937B2",
  "about": "“NLRP3 modulators” (INNATE TUMOR IMMUNITY, INC., priority 2019, dated 2024)",
  "data": [
    {"target": "T1, NLRP3 (Homo sapiens, UniProt Q96P20)", "T1 construct": "Measurement of IL-1β Production in PMA-Differentiated THP-1 Cells; host or cells: THP-1 cells, PMA-differentiated", "T1 sequence (Q96P20 whole entry)": "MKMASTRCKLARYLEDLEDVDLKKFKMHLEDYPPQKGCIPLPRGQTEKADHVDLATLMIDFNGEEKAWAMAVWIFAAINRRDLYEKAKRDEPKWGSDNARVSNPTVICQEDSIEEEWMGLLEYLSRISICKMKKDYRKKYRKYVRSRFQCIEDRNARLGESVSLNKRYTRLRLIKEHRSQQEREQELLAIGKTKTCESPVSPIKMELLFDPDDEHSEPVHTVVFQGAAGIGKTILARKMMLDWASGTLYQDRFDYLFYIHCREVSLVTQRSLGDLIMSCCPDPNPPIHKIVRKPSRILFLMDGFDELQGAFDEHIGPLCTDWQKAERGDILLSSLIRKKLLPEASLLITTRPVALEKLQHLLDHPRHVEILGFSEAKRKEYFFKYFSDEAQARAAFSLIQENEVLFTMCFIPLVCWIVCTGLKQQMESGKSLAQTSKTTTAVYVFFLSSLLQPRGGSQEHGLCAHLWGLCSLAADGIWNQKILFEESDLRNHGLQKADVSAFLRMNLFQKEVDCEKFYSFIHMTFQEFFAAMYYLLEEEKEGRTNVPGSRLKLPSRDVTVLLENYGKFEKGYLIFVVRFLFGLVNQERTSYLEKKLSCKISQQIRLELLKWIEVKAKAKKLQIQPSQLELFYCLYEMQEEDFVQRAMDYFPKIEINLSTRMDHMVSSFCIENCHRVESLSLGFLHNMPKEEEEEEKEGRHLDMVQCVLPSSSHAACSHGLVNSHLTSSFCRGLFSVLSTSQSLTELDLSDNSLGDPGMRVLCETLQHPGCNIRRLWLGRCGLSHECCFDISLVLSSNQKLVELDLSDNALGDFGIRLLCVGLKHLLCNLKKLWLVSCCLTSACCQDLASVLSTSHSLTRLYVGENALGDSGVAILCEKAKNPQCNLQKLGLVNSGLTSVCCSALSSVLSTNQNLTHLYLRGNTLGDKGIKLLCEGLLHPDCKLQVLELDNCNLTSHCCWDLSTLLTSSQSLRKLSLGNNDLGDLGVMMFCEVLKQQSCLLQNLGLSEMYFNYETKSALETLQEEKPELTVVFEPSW", "experiment": "Measurement of IL-1β production in PMA-differentiated THP-1 cells (NLRP3 hIL1β)", "format": "cell-based", "experimental": "Measurement of IL-1β Production in PMA-Differentiated THP-1 Cells\nTHP-1 cells were purchased from the American Type Culture Collection and sub-cultured according to instructions from the supplier. Prior to experiments, cells were cultured in RPMI 1640 containing 10% heat inactivated FBS, penicillin (100 units/ml) and streptomycin (100 μg/ml), and maintained in log phase prior to experimental setup. Prior to the experiment THP-1 were treated with PMA (Phorbol 12-myristate 13-acetate) (10 μg/ml) for 24 hours. The day of the experiment the media was removed and attaching cells were treated with trypsin for 2 minutes, cells were then collected, washed with PBS (phosphate buffer saline), spin down, resuspended in 2% heat inactivated FBS with RPMI at a concentration of 1×10^6 cells/ml, and 100 μl was plated in a 96 well plate. Compounds were dissolved in dimethyl sulfoxide (DMSO) and added to the culture medium to achieve desired concentration (e.g. 100, 30, 10, 3, 1, 0.3 or 0.1 μM). Cells were incubated with compounds for 4 hours. Cell free supernatant was collected and the production of IL-1β was evaluated by ELISA. A vehicle only control was run concurrently with each experiment. Final DMSO concentration was 1%.\nMeasurement of IL-1β Production in PMA-Differentiated THP-1 Cells (Alternative Procedure)\nTHP-1 cells were purchased from the American Type Culture Collection and sub-cultured according to instructions from the supplier. Prior to experiments, cells were cultured in RPMI 1640 containing 10% heat inactivated FBS, penicillin (100 units/ml), streptomycin (100 μg/ml), HEPES (10 mM) and sodium pyruvate (1 mM) and maintained in log phase prior to experimental setup. Prior to the experiment, THP-1 cells were treated with PMA (Phorbol 12-myristate 13-acetate) (20 μg/ml) overnight. The day of the experiment, the media was removed and attached cells were treated with trypsin for 2 minutes, cells were then collected, washed with PBS (phosphate buffer saline), pelleted by centrifugation and resuspended in 2% heat inactivated FBS with RPMI at a concentration of 50,000 cells/well in a 384 well plate. Cell free supernatant was collected and the production of IL-1β was evaluated by ELISA. Compounds were dissolved in dimethyl sulfoxide (DMSO) and added to the culture medium to achieve desired concentration (e.g. 100, 30, 10, 3, 1, 0.3 or 0.1 μM). Cells were incubated with compounds for 2 hours. A vehicle only control was run concurrently with each experiment. Final DMSO concentration was 1%.\nMeasurement of IL-1β Production—hTRF Protocol (Second Alternative Procedure)\nSerial dilutions of compounds in DMSO were added to low volume 384 well plates at 100 nl/well using an ECHO 550 acoustic dispenser (Labcyte) to achieve final starting concentration of 10 μM in assay.\nTHP-1 cells in RPMI (Gibco, 11875) media with 10% FBS at a density of 1×10^6 cell/ml in a T175 flask were treated with a final concentration of phorbol 12-myristate 13-acetate (PMA) (Sigma, P1585) of 50 ng/ml overnight at 37° C. at 5% CO2 for differentiation. Cells were harvested the next day after rinsing well wth dPBS using 0.5% trypsin. A cell solution was prepared of 1×10^6 cells/ml for 50,000 cells in 50 μl/well in RPMI media with 2% FBS. Cells were plated using a multichannel pipette onto the compound dilutions in Greiner, 384 well, black clear bottom tissue culture treated plates (781090). The plates were incubated in 37° C. incubator at 5% CO2 for 2 hours.\nAfter the 2 hour incubation, the cell plates were spun in the centrifuge for 5 minutes at 1200 rpm. Using the Felix (CyBio), 8 μl of the supernatant was transferred to 384 well, low volume, white proxy plates. (Perkin Elmer, 6008230). A human IL1beta hTRF kit was used to analyze the supernatant (CISBIO, 62HIL1BPEG). The kit instructions were followed for preparing the IL1Beta standard curve and then the antibodies from the kit were diluted 1:40 rather than 1:20 as kit instructed. […]", "units": {"EC50": "nM"}, "values": [
      {"smiles": "Nc1nc(NCc2cncnc2)c2ncc(-c3cc[nH]n3)cc2n1", "note": "[Example 18]", "EC50": 2000},
      {"smiles": "Nc1nc(NCCO)c2ncc(-c3cc[nH]n3)cc2n1", "note": "[Example 20]", "EC50": 1900},
      {"smiles": "Nc1cc(NCCCO)c2ncc(-c3ccn[nH]3)cc2n1", "note": "[Example 16]", "EC50": 350},
      {"smiles": "Nc1cc(NCc2cc[nH]n2)c2ncc(-c3ccn[nH]3)cc2n1", "note": "[Example 15]", "EC50": 280},
      {"smiles": "Nc1cc(N[C@@H]2CC[C@@H](O)C2)c2ncc(-c3ccn[nH]3)cc2n1", "note": "[Example 26]", "EC50": 590},
      {"smiles": "Nc1nc(N[C@H]2CC[C@H](O)C2)c2ccc(-c3ccn[nH]3)nc2n1", "note": "[Example 7, (1S,3 S)-3-((2-amino-7-(1H-pyrazol-5-yl)pyrido[2,3-d]pyrimidin-4-yl)amino)cyclopentan-1-ol]", "EC50": 5700},
      {"smiles": "Nc1cc(N[C@H]2CC[C@H](O)C2)c2cnc(-c3ccn[nH]3)cc2n1", "note": "[Example 2, (1S,3S)-3-((2-amino-7-(1H-pyrazol-5-yl)-1,6-naphthyridin-4-yl)amino)cyclopentan-1-ol]", "EC50": 17000},
      {"smiles": "Nc1cc(NCCCO)c2ccc(-c3cc[nH]n3)nc2n1", "note": "[Example 1, 3-((2-amino-7-(1H-pyrazol-3-yl)-1,8-naphthyridin-4-yl)amino)propan-1-ol]", "EC50": 1000},
      {"smiles": "Nc1cc(NCc2cccnn2)c2ccc(-c3cc[nH]n3)nc2n1", "note": "[Example 9]", "EC50": 2000},
      {"smiles": "Nc1nc(N2CCCOCC2)c2ncc(-c3cc[nH]n3)cc2n1", "note": "[Example 21]", "EC50": 700},
      {"smiles": "C[C@H](O)CNc1cc(N)nc2cc(-c3ccn[nH]3)cnc12", "note": "[Example 24]", "EC50": 310},
      {"smiles": "Nc1cc(N[C@H]2CCOC2)c2cnc(-c3cc[nH]n3)cc2n1", "note": "[Example 12]", "EC50": 1700},
      {"smiles": "Nc1cc(N[C@H]2CC[C@H](O)C2)c2ncc(-c3ccn[nH]3)cc2n1", "note": "[Example 4, (1S,3S)-3-((2-amino-7-(1H-pyrazol-5-yl)-1,5-naphthyridin-4-yl)amino)cyclopentan-1-ol]", "EC50": 3500},
      {"smiles": "Nc1nc(NCCc2ccccn2)c2ncc(-c3cc[nH]n3)cc2n1", "note": "[Example 19]", "EC50": 690},
      {"smiles": "Nc1cc(NCc2cccnn2)c2ncc(-c3ccn[nH]3)cc2n1", "note": "[Example 29]", "EC50": 280},
      {"smiles": "Nc1nc(N[C@@H]2CCOC2)c2ncc(-c3cc[nH]n3)cc2n1", "note": "[Example 6, (R)-7-(1H-pyrazol-3-yl)-N4-(tetrahydrofuran-3-yl)pyrido[3,2-d]pyrimidine-2,4-diamine]", "EC50": 3600},
      {"smiles": "Nc1cc(N[C@H]2C[C@H](O)C2)c2ncc(-c3ccn[nH]3)cc2n1", "note": "[Example 28]", "EC50": 140},
      {"smiles": "Nc1cc(N[C@H]2CC[C@H](O)C2)c2ccc(-c3cc[nH]n3)nc2n1", "note": "[Example 8]", "EC50": 1600},
      {"smiles": "C[C@@H](O)CNc1cc(N)nc2cc(-c3ccn[nH]3)cnc12", "note": "[Example 25]", "EC50": 80},
      {"smiles": "Nc1cc(NCCO)c2ncc(-c3ccn[nH]3)cc2n1", "note": "[Example 3, 2-((2-amino-7-(1H-pyrazol-3-yl)-1,5-naphthyridin-4-yl)amino)ethan-1-ol]", "EC50": 310},
      {"smiles": "Nc1cc(-c2cc[nH]n2)c2ncc(-c3ccn[nH]3)cc2n1", "note": "[Example 5, 4-(1H-pyrazol-3-yl)-7-(1H-pyrazol-5-yl)-1,5-naphthyridin-2-amine]", "EC50": 860},
      {"smiles": "Nc1cc(NCCCO)c2cnc(-c3cc[nH]n3)cc2n1", "note": "[Example 11]", "EC50": 1700},
      {"smiles": "Nc1cc(N[C@@H]2CCOC2)c2ncc(-c3ccn[nH]3)cc2n1", "note": "[Example 14]", "EC50": 2600},
      {"smiles": "Nc1cc(N[C@H]2CCOC2)c2ccc(-c3cc[nH]n3)nc2n1", "note": "[Example 10]", "EC50": 930},
      {"smiles": "Nc1nc(NCCCO)c2ncc(-c3cc[nH]n3)cc2n1", "note": "[Example 17]", "EC50": 830}
    ]}
  ]
}
